# Test results from patent US20220267310A1, “QUINAZOLINE AND CINNOLINE DERIVATIVES AS DNA-PK INHIBITOR” (MEDSHINE DISCOVERY INC., priority 2019, published 2022).
# “And” between values parts separate entries of the source, which are not always exact repeats. Equal entries are not always repeated.
# Experiments:
# [1] = system: human small cell lung cancer NCI-H69 cell subcutaneous xenograft tumor; experiment: NCI-H69 subcutaneous xenograft, combination with etoposide, 22-day experiment (Table 7); assay type: in vivo, BALB/c nude mice; details: for T/C (%) / TGI (%): 22nd day; for Tumor volume (mm^3) (0th day) / Tumor volume (mm^3) (22th day): average ± SEM
# Protocol: Experiment example 3: in vivo pharmacodynamics of human small cell lung cancer NCI-H69 cell subcutaneous xenograft tumor BALB/c nude mouse model:
# Experimental animals: Female BALB/c nude mice, 6-8 weeks old, weighing 15-22 grams; supplier: Shanghai Linchang Biotechnology Co., LTD. (Linchang, Shanghai)
# Human small cell lung cancer NCI-H69 cells (ATCC, item number: HTB-119 and ECACC-95111733) were cultured in vitro in a culture condition of RPMI-1640 medium with 10% fetal bovine serum, 100 U/mL penicillin and 100 μg/mL streptomycin, incubated at 37° C. and 5% CO2. Conventional passage was carried out twice a week. When cell saturation was 80%-90% and the number reaches the requirement, cells were collected, counted and inoculated.
# 0.2 mL (10×10^6) NCI-H69 cells (with matrix glue, and volume ratio of 1:1) were subcutaneously inoculated into a right back of each mouse, and group administration was initiated when the average tumor volume reaches about 110-120 mm^3.
# The tested compound was prepared as a 5 mg/mL clarified solution with 10% DMSO+50% polyethylene glycol 400+40% water as the solvent.
# (§1) The experimental indicators refers to study whether tumor growth was inhibited, delayed, or cured. Tumor diameter was measured twice a week with a vernier caliper. The calculation formula of the tumor volume was V=0.5a×b^2, and a and b represent the long diameter and short diameter of the tumor, respectively.
# (§2) The antitumor efficacy of the compound was evaluated by TGI (%) or relative tumor proliferation rate T/C (%). TGI (%) reflects the tumor growth inhibition rate. The calculation of TGI (%): TGI (%)=[1−(average tumor volume at the end of administration of a certain treatment group−average tumor volume at the beginning of administration of the treatment group)/(average tumor volume at the end of treatment in solvent control group−average tumor volume at the beginning of treatment in solvent control group)]×control group.
# (§3) Relative tumor proliferation rate T/C (%): the calculation formula was as follows: T/C %=[…] TRTV/CRTV group (TRTV: treatment group RTV; CRTV: negative control group RTV). According to results of tumor measurement, Relative Tumor Volume (RTV) was calculated by the formula RTV=Vt/V0, where V0 was the average tumor volume measured in group administration (i.e., d0), and Vt was the average tumor volume measured in a certain single measurement. TRTV and CRTV collect data on the same day.
# (§4) Statistic analysis includes an average value and a standard error (SEM) of tumor volume at each time point for each group. […] If there was no significant difference in F value, Dunnet (2-sided) method was applied to analysis. All data were analyzed using SPSS 17.0. P<0.05 was considered as having a significant difference.
# [2] = system: human head and neck cancer FaDu cell subcutaneous xenograft tumor; experiment: FaDu subcutaneous xenograft, mono and combination with radiotherapy; assay type: in vivo; details: for Tumor volume (mm^3), 3 days after administration: day 3; for Tumor volume (mm^3), 3 days after administration / Tumor volume (mm^3), 7 days after administration / Tumor volume (mm^3), 10 days after administration / Tumor volume (mm^3), 14 days after administration / Tumor volume (mm^3), 17 days after administration / Tumor volume (mm^3), 23 days after administration / Tumor volume (mm^3), 28 days after administration / Tumor volume (mm^3), 31 days after administration / Tumor volume (mm^3), 35 days after administration / Tumor volume (mm^3), 42 days after administration / Tumor volume (mm^3), 49 days after administration / Tumor volume (mm^3), 56 days after administration / Tumor volume (mm^3), 63 days after administration / Tumor volume (mm^3), 70 days after administration / Tumor volume (mm^3) (0th day) / Tumor volume (mm^3) (21th day): average ± SEM, n = 8; for Tumor volume (mm^3), 7 days after administration: day 7; for Tumor volume (mm^3), 10 days after administration: day 10; for Tumor volume (mm^3), 14 days after administration: day 14; for Tumor volume (mm^3), 17 days after administration: day 17; for Tumor volume (mm^3), 23 days after administration: day 23; for Tumor volume (mm^3), 28 days after administration: day 28; for Tumor volume (mm^3), 31 days after administration: day 31; for Tumor volume (mm^3), 35 days after administration: day 35; for Tumor volume (mm^3), 42 days after administration: day 42; for Tumor volume (mm^3), 49 days after administration: day 49; for Tumor volume (mm^3), 56 days after administration: day 56; for Tumor volume (mm^3), 63 days after administration: day 63; for Tumor volume (mm^3), 70 days after administration: day 70; for RTV (21th day) / T/C (%) (21th day) / TGI (%) (21th day) / Tumor volume (mm^3) (0th day) / Tumor volume (mm^3) (21th day): PO
# Protocol: Experiment purpose: The antitumor activity of the tested compound was evaluated in a nude mouse model of human head and neck cancer FaDu cell subcutaneous xenograft tumor
# Experimental animals: Female BALB/c nude mice, 6-8 weeks old, weighing 17-23 grams; supplier: B&K Universal Group Limited
# Human head and neck cancer FaDu cell (ATCC, Manassas. Virginiaite, item number: HTB-43) was cultured in vitro in a culture condition of EMEM medium with 10% fetal bovine serum, 100 U/mL penicillin and 100 μg/mL streptomycin, incubated at 37° C. and 5% CO2. Conventional digestive treatment passage was carried out using pancreatic enzyme—EDTA twice a week.
# Each mouse was subcutaneously inoculated with 0.1 mL ([…]) FaDu cells at the right dorsal position, and when the average tumor volume reaches about 106 mm^3, randomization was used for initiating drug administration.
# The tested compound was prepared as a 5 mg/mL clarified solution with 10% DMSO+50% polyethylene glycol 400+40% water as the solvent. Preparation was conducted every three days.
# as §1, §2
# as §3, with “RTV:” for “RTV;”, “measurement.” for “measurement,”
# as §4
# [3] = 40 mg/kg, PO, QD + etoposide 10 mg/kg, IP, 3-day administration, 4-day withdrawal
# [4] = second Embodiment 19 group of Table 7, 40 mg/kg, PO, QD + etoposide 10 mg/kg, IP
# [5] = 25 mg/kg, QD + radiotherapy 2 Gy
# [6] = 50 mg/kg, QD + radiotherapy 2 Gy
smiles,measurement,setting,value
"COc1ccc(C(O)c2cc(-c3cnnc4c(F)c(N5CCOCC5)cc(F)c34)c(F)cc2Cl)nn1 (single isomer, unassigned) [Embodiment 19]",Weight changes,"[1]; 40 mg/kg group (+ etoposide 10 mg/kg, IP)",−5.88%
same,RTV (22th day),[1]; [3],3.73
same,T/C (%),[1]; [3],43.34%
same,TGI (%),[1]; [3],64% and 63.98%
same,Tumor volume (mm^3) (0th day),[1]; [3],119 ± 12 mm^3
same,Tumor volume (mm^3) (22th day),[1]; [3],444 ± 34 mm^3
same,Weight changes,"[1]; 80 mg/kg group (+ etoposide 10 mg/kg, IP)",0.13%
same,TGI,"[1]; 80 mg/kg, PO, QD + etoposide 10 mg/kg, IP, 3-day administration, 4-day withdrawal",80%
same,RTV (22th day),[1]; [4],2.51
same,Tumor volume (mm^3) (0th day),"[1]; second Embodiment 19 group of Table 7, 40 mg/kg, PO, QD + etoposide 10 mg/kg, IP, 3-day administration, 4-day withdrawal",119 ± 12 mm^3
same,T/C (%),[1]; [4],29.20%
same,TGI (%),[1]; [4],80.09%
same,Tumor volume (mm^3) (22th day),[1]; [4],299 ± 31 mm^3
same,"Tumor volume (mm^3), 3 days after administration",[2]; 25 mg/kg + 2 Gy,172 ± 16 mm^3
same,"Tumor volume (mm^3), 7 days after administration",[2]; 25 mg/kg + 2 Gy,136 ± 11 mm^3
same,"Tumor volume (mm^3), 10 days after administration",[2]; 25 mg/kg + 2 Gy,76 ± 11 mm^3
same,"Tumor volume (mm^3), 14 days after administration",[2]; 25 mg/kg + 2 Gy,29 ± 5 mm^3
same,"Tumor volume (mm^3), 17 days after administration",[2]; 25 mg/kg + 2 Gy,11 ± 3 mm^3
same,"Tumor volume (mm^3), 23 days after administration",[2]; 25 mg/kg + 2 Gy,1 ± 1 mm^3
same,"Tumor volume (mm^3), 28 days after administration",[2]; 25 mg/kg + 2 Gy,0 ± 0 mm^3
same,"Tumor volume (mm^3), 31 days after administration",[2]; 25 mg/kg + 2 Gy,0 ± 0 mm^3
same,"Tumor volume (mm^3), 35 days after administration",[2]; 25 mg/kg + 2 Gy,0 ± 0 mm^3
same,"Tumor volume (mm^3), 42 days after administration",[2]; 25 mg/kg + 2 Gy,0 ± 0 mm^3
same,"Tumor volume (mm^3), 49 days after administration",[2]; 25 mg/kg + 2 Gy,0 ± 0 mm^3
same,"Tumor volume (mm^3), 56 days after administration",[2]; 25 mg/kg + 2 Gy,0 ± 0 mm^3
same,"Tumor volume (mm^3), 63 days after administration",[2]; 25 mg/kg + 2 Gy,0 ± 0 mm^3
same,"Tumor volume (mm^3), 70 days after administration",[2]; 25 mg/kg + 2 Gy,0 ± 0 mm^3
same,RTV (21th day),[2]; [5],0.01 ± 0.01
same,T/C (%) (21th day),[2]; [5],0.08%
same,TGI (%) (21th day),[2]; [5],108.61%
same,Tumor volume (mm^3) (0th day),"[2]; 25 mg/kg, QD + radiotherapy 2 Gy, 5-day radiotherapy, 2-day withdrawal",106 ± 6 mm^3
same,Tumor volume (mm^3) (21th day),[2]; [5],1 ± 1 mm^3
same,"Tumor volume (mm^3), 3 days after administration",[2]; 50 mg/kg + 2 Gy,175 ± 14 mm^3
same,"Tumor volume (mm^3), 7 days after administration",[2]; 50 mg/kg + 2 Gy,155 ± 17 mm^3
same,"Tumor volume (mm^3), 10 days after administration",[2]; 50 mg/kg + 2 Gy,97 ± 16 mm^3
same,"Tumor volume (mm^3), 14 days after administration",[2]; 50 mg/kg + 2 Gy,45 ± 10 mm^3
same,"Tumor volume (mm^3), 17 days after administration",[2]; 50 mg/kg + 2 Gy,12 ± 5 mm^3
same,"Tumor volume (mm^3), 23 days after administration",[2]; 50 mg/kg + 2 Gy,1 ± 1 mm^3
same,"Tumor volume (mm^3), 28 days after administration",[2]; 50 mg/kg + 2 Gy,1 ± 0 mm^3
same,"Tumor volume (mm^3), 31 days after administration",[2]; 50 mg/kg + 2 Gy,0 ± 0 mm^3
same,"Tumor volume (mm^3), 35 days after administration",[2]; 50 mg/kg + 2 Gy,0 ± 0 mm^3
same,"Tumor volume (mm^3), 42 days after administration",[2]; 50 mg/kg + 2 Gy,0 ± 0 mm^3
same,"Tumor volume (mm^3), 49 days after administration",[2]; 50 mg/kg + 2 Gy,0 ± 0 mm^3
same,"Tumor volume (mm^3), 56 days after administration",[2]; 50 mg/kg + 2 Gy,0 ± 0 mm^3
same,"Tumor volume (mm^3), 63 days after administration",[2]; 50 mg/kg + 2 Gy,0 ± 0 mm^3
same,"Tumor volume (mm^3), 70 days after administration",[2]; 50 mg/kg + 2 Gy,0 ± 0 mm^3
same,animal death or euthanasia during the study,"[2]; 50 mg/kg alone, one animal of the group",euthanized 22 days after the start of administration
same,"Tumor volume (mm^3), 3 days after administration",[2]; 50 mg/kg alone,189 ± 18 mm^3
same,"Tumor volume (mm^3), 7 days after administration",[2]; 50 mg/kg alone,375 ± 28 mm^3
same,"Tumor volume (mm^3), 10 days after administration",[2]; 50 mg/kg alone,568 ± 50 mm^3
same,"Tumor volume (mm^3), 14 days after administration",[2]; 50 mg/kg alone,946 ± 108 mm^3
same,"Tumor volume (mm^3), 17 days after administration",[2]; 50 mg/kg alone,1120 ± 131 mm^3
same,"Tumor volume (mm^3), 23 days after administration",[2]; 50 mg/kg alone,1808 ± 372 mm^3
same,RTV (21th day),[2]; [6],0.01 ± 0.01
same,T/C (%) (21th day),[2]; [6],0.08%
same,TGI (%) (21th day),[2]; [6],108.64%
same,Tumor volume (mm^3) (0th day),"[2]; 50 mg/kg, QD + radiotherapy 2 Gy, 5-day radiotherapy, 2-day withdrawal",106 ± 5 mm^3
same,Tumor volume (mm^3) (21th day),[2]; [6],1 ± 1 mm^3
same,RTV (21th day),"[2]; 50 mg/kg, QD, alone",14.18 ± 2.04
same,T/C (%) (21th day),"[2]; 50 mg/kg, QD, alone",114.35%
same,TGI (%) (21th day),"[2]; 50 mg/kg, QD, alone",−15.37%
same,Tumor volume (mm^3) (0th day),"[2]; 50 mg/kg, QD, alone",106 ± 5 mm^3
same,Tumor volume (mm^3) (21th day),"[2]; 50 mg/kg, QD, alone",1501 ± 242 mm^3
